Data from publication PMC4300529 (Anesthesiology, 2015).

Columns and labels:
Xenopus tadpoles = test: Xenopus tadpole anesthetic activity; assay type: in vivo, Xenopus laevis
mice [1] = test: Loss-of-righting reflex anesthetic potency assay in mice; assay type: in vivo, mice (C57BL/6J)
mice [2] = details: previously reported; cited from earlier work
apoferritin = apoferritin (Equus caballus, UniProt P02791); test: biochemical
[3] = pharmacokinetic profiling; assay type: in vivo; details: data not shown

apoferritin, sequence (P02791 2-175 limits assumed): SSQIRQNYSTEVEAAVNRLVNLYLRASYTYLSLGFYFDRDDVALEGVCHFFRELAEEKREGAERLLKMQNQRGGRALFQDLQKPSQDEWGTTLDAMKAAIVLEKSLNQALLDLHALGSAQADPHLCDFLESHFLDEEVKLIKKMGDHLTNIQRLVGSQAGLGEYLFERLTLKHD

In the case of `CC(C)c1cccc(C(C)C)c1O` [propofol, reference compound], the “toxicity in tadpoles at 100 μM” value (Xenopus tadpoles; 100 μM) is given as “produced death at 100 μM”, the “duration of LoRR” value (mice [1]; 20 mg/kg (0.11 mmol/kg)) is given as 445 ± 27 and the logED50 in mice (mice [2]) is given as −1.03 mmol/kg. The IC50 (apoferritin) was 23 µM.

With `Cc1ccc(-c2ccc(=O)n(CC(=O)NCCc3ccccc3)n2)cc1` [compound 5] the “anesthetic activity / potency in tadpoles (immobility), in words” value (Xenopus tadpoles; tadpole immobility after 60 minutes exposure, SAR statements to figs 4-6) was “optimal anesthetic activity”, the “mean duration of LoRR” value (mice [1]; 100 mg/kg iv) was 245 ± 65 s and the “onset of LoRR” value (mice [1]; intravenous, doses roughly twice that of propofol (moles per kilogram)) was less than 20 s. The “LogED50 for LoRR” value (mice [1]; iv injection, unit printed only with the propofol value of the same legend) was −0.761 mmol/kg and the “pharmacokinetic profile (uptake, distribution, elimination)” value [3] was “did not show any remarkable patterns of uptake, distribution, or elimination”.
